Reference: patent EP0103895A2, “Novel hydroxylamine derivatives, production and use thereof” (MEIJI SEIKA KABUSHIKI KAISHA, priority 1982, dated 1984)
Where “and” joins values, the source holds several entries; their conditions need not be identical. Equal values may be shown once. Read-outs that look alike come from different tables or passages of the source.

Legend:
[1] = test system: fowl roundworm (Ascaridia galli); experiment: Anthelmintic test in chickens artificially infected with fowl roundworm, single oral dose in gelatin capsule, worm bodies counted within 48 hours (Test Examples A1, B1, C1, D1); type: in vivo; details: for inhibition in vivo at 30 mg/kg / inhibition in vivo at 50 mg/kg / inhibition in vivo at 15 mg/kg: Ascaridia galli, po, 48 h, read-out: Anthelmintic effect after 48 hours
Procedure: Chickens infected artificially with fowl roundworm (Ascaridia galli) were employed in groups each consisting of three chickens. Fecal matter testing was conducted before administration of medicine to confirm infection with the worm. The quantity of the compound provided for testing was 10 mg and 20 mg per Kg of body weight, which was orally administered each in a gelatin capsule to the chicken. The number of worm bodies discharged within 48 hours after administration of medicine was counted, the chicken was killed after 48 hours and the number of worm bodies remaining in the enteron was counted to determine the anthelmintic percentage, wherefrom the antihelmintic effect was judged.
The same as that in Test Example Al.
The same as that in Test Example Al except that the compound provided for testing was in quantities of 30 mg and 50 mg per Kg of body weight, which were orally administered to the chickens in gelatin capsules.
The same as that in Test Example Al, except that the compounds provided for testing were used in quantities of 15 mg and 30 mg per Kg of body weight, which were orally administered each in a gelatin capsule to the chicken.

[2] = test system: fowl roundworm (As. galli); experiment: Anthelmintic test in chickens artificially infected with fowl roundworm, compound added to feed, E.P.G. and worm count up to 21st day (Test Examples A2, B2, C2, D2); type: in vivo, Ascaridia galli; details: for inhibition in vivo at 20 ppm / inhibition in vivo at 50 ppm / inhibition in vivo at 25 ppm: Ascaridia galli, 504 h, read-out: Anthelmintic effect; for Change of E.P.G. Before administration: baseline
Procedure: Chickens artificially infected with fowl roundworm (As. galli) were employed in groups each of two chickens.
Fecal matter testing was conducted before initiation of the test and on the 7th, 14th and 21st day after initiation of the test. Reduction in worm egg number was examined by calculating E.P.G. (worm eggs per 1 g of fecal matter), and the number of discharged worm bodies and the number of worm bodies remaining in the enteron when the chicken was killed on 21st day were counted to determine the anthelmintic percentage, from which the anthelmintic effect was judged.

[3] = test system: canine filaria; Dirofilaria immitis; experiment: Test of anthelmintic effect against canine filaria in naturally infected dogs, subcutaneous injection, microfilaria in blood and adult filaria at autopsy (Test Examples A10, B10, C10, D10); type: in vivo
Procedure: Eight dogs infected with canine filaria; Diro- filaria immitis (naturally infected dogs) were employed in groups each of two dogs.
The compounds provided for tests were Compound Nos. Al, A3 and A12. 20 mg of each was administered by subcutaneous injection per Kg of body weight to each of the two dogs as a suspension in 1% "Tween 80" solution once per day for three days. As control, 3 ml of the 1% "Tween 80" solution was subcutaneously injected into two dogs once per day for three days.
Before administration and on the 10th day after administration, 20 µl of earlobe blood of each dog was sampled and examined to determine the change in microfilaria (mf) according to the concentrated smear color method, and judgement on the effect on microfilaria (mf) was made. Judgement relating to adult filaria was made on the 10th day after the last administration by killing the dogs and carrying out autopsis.
30 mg of each compound was administered by subcutaneous injection per Kg of body weight to each of the two dogs as a suspension in 1% "Tween 80" solution once per day for three days. As control, 3 ml of the 1% "Tween 80" solution was subcutaneously injected into two dogs once per day for three days.
30 mg of each compound was administered by subcutaneous injection per Kg of body weight to each of two dogs as a suspension in 1% "Tween 80" solution once per day for three days. As control, 3 ml of the 1% "Tween 80" solution was subcutaneously injected to two dogs once per day for three days.
20 mg of each compound was administered by subcutaneous injection per kg of body weight once per day for three days to each of two dogs. These compounds were administered as a suspension in 1% "Tween 80" in the case of Compound No.Dl3 and as solutions dissolved in distilled water for injection in the case of Compounds Nos. D10 and D16, respectively. As control, 3 ml of the 1% "Tween 80" solution was subcutaneously injected into two dogs once per day for three days.

[4] = chickens, 30 mg/Kg orally in gelatin capsule, one value per chicken (No.1-3)
[5] = chickens, 50 mg/Kg orally in gelatin capsule, one value per chicken (No.1-3)
[6] = po, chickens, 20 ppm added to feed, worm count on 21st day, one value per chicken
[7] = po, chickens, 50 ppm added to feed, worm count on 21st day, one value per chicken
[8] = chickens, 20 ppm added to feed, one value per chicken
[9] = chickens, 50 ppm added to feed, one value per chicken
[10] = chicken, 30 mg/Kg oral in gelatin capsule, chickens No.1-3
[11] = chicken, 50 mg/Kg oral in gelatin capsule, chickens No.1-3
[12] = feed or water, chicken, 25 ppm in feed
[13] = feed or water, chicken, 50 ppm in feed
[14] = chicken, 15 mg/Kg oral in gelatin capsule, chickens No.1-3

## C=CCN(OC)C(=O)CC [Compound B2, N-allyl-N-propionyl-O-methylhydroxylamine]
[1]; [4]
  inhibition in vivo at 30 mg/kg: 100%
[1]; [5]
  inhibition in vivo at 50 mg/kg: 100%
[2]; [6]
  inhibition in vivo at 20 ppm: 80 to 90%
[2]; [7]
  inhibition in vivo at 50 ppm: 100%

## C=CCN(OC)C(=O)CCC [Compound B3, N-allyl-N-butylyl-O-methylhydroxylamine]
[1]; [4]
  Anthelmintic effect after 48 hours: +++ (100%)
[1]; [5]
  Anthelmintic effect after 48 hours: +++ (100%)
[2]; chickens, 20 ppm added to feed, worm count on 21st day, one value per chicken
  anthelmintic effect: ++ (80 - 90%)
[2]; [8]
  Change of E.P.G. Before administration: 5,600 E.P.G. and 7,900 E.P.G.
  Change of E.P.G. 7th day: 3.100 E.P.G. and 3,000 E.P.G.
[2]; chickens, 50 ppm added to feed, worm count on 21st day, one value per chicken
  anthelmintic effect: +++ (100%)
[2]; [9]
  Change of E.P.G. Before administration: 10,700 E.P.G. and 14,300 E.P.G.
  Change of E.P.G. 21st day: 0 E.P.G.

## C=CCN(OC)C(=O)CCCCCCC/C=C\CCCCCCCC [Compound B4, N-allyl-N-oleoyl-O-methylhydroxylamine]
[1]; [4]
  inhibition in vivo at 30 mg/kg: 100%
[1]; [5]
  inhibition in vivo at 50 mg/kg: 100%
[2]; [6]
  inhibition in vivo at 20 ppm: 100%
[2]; [7]
  inhibition in vivo at 50 ppm: 100%

## C=CCN(C=O)OC [Compound B6, N-allyl-N-formyl-O-methylhydroxylamine]
[1]; [4]
  inhibition in vivo at 30 mg/kg: 100%
[1]; [5]
  inhibition in vivo at 50 mg/kg: 100%
[2]; [6]
  inhibition in vivo at 20 ppm: 80 to 90%
[2]; [7]
  inhibition in vivo at 50 ppm: 100%

## CC=CCN(OC)C(C)=O [Compound B7, N-crotyl-N-acetyl-O-methylhydroxylamine]
[1]; [4]
  inhibition in vivo at 30 mg/kg: 100%
[1]; [5]
  inhibition in vivo at 50 mg/kg: 100%

## C=CCN(OCC)C(=O)CC [Compound B9, N-allyl-N-propionyl-O-ethylhydroxylamine]
[3]; Dirofilaria immitis, sc, 240 h, dogs, administration of 30 mg/Kg repeated three times, given as about 50% or more, read-out: anthelmintic effect against adult filaria
  inhibition in vivo at 30 mg/kg: ≥ 50%
[3]; dog, 30 mg/Kg x 3, subcutaneous injection, suspension in 1% Tween 80
  Number of microfilaria/20 µl on 10th day after the last administration: 0 /20 µl
[3]; dog, 30 mg/Kg x 3, subcutaneous injection, 30 mg/kg
  Effect on adult filaria: Number of worms killed/ Total parasite: 5/7 and 4/8
[3]; dogs, administration of 30 mg/Kg repeated three times
  anthelmintic effect against microfilaria (mf): marked anthelmintic effect
[1]; [4]
  inhibition in vivo at 30 mg/kg: 100%
[1]; [5]
  inhibition in vivo at 50 mg/kg: 100%

## C=CCN(OCC)C(=O)CCC [Compound B10, N-allyl-N-butylyl-0-ethylhydroxylamine]
[1]; [4]
  inhibition in vivo at 30 mg/kg: 100%
[1]; [5]
  inhibition in vivo at 50 mg/kg: 100%

## C=CCN(OCC)C(=O)CC(C)C [Compound B11, N-allyl-N-isovaleroyl-O-ethylhydroxylamine]
[1]; [4]
  inhibition in vivo at 30 mg/kg: 100%
[1]; [5]
  inhibition in vivo at 50 mg/kg: 100%

## C=CCN(OCC)C(=O)CCCCCCCCCCCCCCCCC [Compound B12, N-allyl-N-stearoyl-O-ethylhydroxylamine]
[1]; [4]
  inhibition in vivo at 30 mg/kg: 100%
[1]; [5]
  inhibition in vivo at 50 mg/kg: 100%

## C=CCN(OCC)C(=O)c1ccccc1 [Compound B13, N-allyl-N-benzoyl-0-ethylhydroxylamine]
[1]; [4]
  inhibition in vivo at 30 mg/kg: 100%
[1]; [5]
  inhibition in vivo at 50 mg/kg: 100%

## C=CCN(OCC)C(=O)c1ccc(F)cc1 [Compound B14, N-allyl-N-(p-fluorobenzoyl)-O-ethylhydroxylamine]
[1]; [4]
  inhibition in vivo at 30 mg/kg: 100%
[1]; [5]
  inhibition in vivo at 50 mg/kg: 100%

## C=CCN(C=O)OCC [Compound B15, N-allyl-N-formyl-O-ethylhydroxylamine]
[1]; [4]
  inhibition in vivo at 30 mg/kg: 100%
[1]; [5]
  inhibition in vivo at 50 mg/kg: 100%
[2]; [6]
  inhibition in vivo at 20 ppm: 80 to 90%
[2]; [7]
  inhibition in vivo at 50 ppm: 100%

## CC=CCN(OCC)C(C)=O [Compound B16, N-crotyl-N-acetyl-O-ethylhydroxylamine]
[1]; [4]
  inhibition in vivo at 30 mg/kg: 100%
[1]; [5]
  inhibition in vivo at 50 mg/kg: 100%
[2]; [6]
  inhibition in vivo at 20 ppm: 100%
[2]; [7]
  inhibition in vivo at 50 ppm: 100%

## C=CCN(OCCC)C(C)=O [Compound B17, N-allyl-N-acetyl-O-propylhydroxylamine]
[1]; [4]
  inhibition in vivo at 30 mg/kg: 100%
[1]; [5]
  inhibition in vivo at 50 mg/kg: 100%
[2]; [6]
  inhibition in vivo at 20 ppm: 80 to 90%
[2]; [7]
  inhibition in vivo at 50 ppm: 100%

## C=CCN(OCCCC)C(C)=O [Compound B18, N-allyl-N-acetyl-0-butylhydroxylamine]
[1]; [4]
  inhibition in vivo at 30 mg/kg: 100%
[1]; [5]
  inhibition in vivo at 50 mg/kg: 100%
[2]; [6]
  inhibition in vivo at 20 ppm: 100%
[2]; [7]
  inhibition in vivo at 50 ppm: 100%

## C=CCON(CC=C)C(=O)CCCCCCCCCCCCCCCCC [Compound C5]
[1]; [10]
  inhibition in vivo at 30 mg/kg: 80 to 90%
[1]; [11]
  inhibition in vivo at 50 mg/kg: 80 to 90%
[2]; [12]
  inhibition in vivo at 25 ppm: 80 to 90%
[2]; [13]
  inhibition in vivo at 50 ppm: 100%

## C=CCON(C=O)CC=C [Compound C8]
[1]; [10]
  inhibition in vivo at 30 mg/kg: 100%
[1]; [11]
  inhibition in vivo at 50 mg/kg: 100%
[2]; [12]
  inhibition in vivo at 25 ppm: 100%
[2]; [13]
  inhibition in vivo at 50 ppm: 100%
[2]; chicken, 25 ppm in feed
  Change of E.P.G. 21st day: 0
[2]; chicken, 50 ppm in feed
  Change of E.P.G. 21st day: 0

## C=CCNOCCC [Compound D2, N-allyl-0-propylhydroxylamine]
[1]; [10]
  inhibition in vivo at 30 mg/kg: 100%
[2]; [12]
  inhibition in vivo at 25 ppm: 80 to 90%
[2]; [13]
  inhibition in vivo at 50 ppm: 100%

## C=CCNOCC=C [Compound D4]
[1]; [14]
  inhibition in vivo at 15 mg/kg: 80 to 90%
[1]; [10]
  inhibition in vivo at 30 mg/kg: 100%
[2]; [12]
  inhibition in vivo at 25 ppm: 80 to 90%
[2]; [13]
  inhibition in vivo at 50 ppm: 100%

## C#CCONCC=C [Compound D5]
[1]; [14]
  inhibition in vivo at 15 mg/kg: 100%
[1]; [10]
  inhibition in vivo at 30 mg/kg: 100%
  Anthelmintic effect after 48 hours: +++ (100%)
[1]; chicken, 15 mg/Kg oral in gelatin capsule, chickens No.1-3, 15 mg/kg
  Anthelmintic effect after 48 hours: +++ (100%)
[2]; [12]
  inhibition in vivo at 25 ppm: 80 to 90%
[2]; [13]
  inhibition in vivo at 50 ppm: 100%

## CC=CCNOCC [Compound D7]
[1]; [10]
  inhibition in vivo at 30 mg/kg: 100%

## C=CCONCC=CC [Compound D8]
[1]; [14]
  inhibition in vivo at 15 mg/kg: 80 to 90%
[1]; [10]
  inhibition in vivo at 30 mg/kg: 100%

## C#CCNOCCC [Compound D11]
[1]; [10]
  inhibition in vivo at 30 mg/kg: 100%
